From US8039501B2, “Synephrine derivatives useful as anti-inflammatory agents” (Universiteit Gent, priority 2005, dated 2011)

Assays:
[1] = system: multiple myeloma cells U266; test: MTT test, cell viability of U266 cells; type: cell-based, human; conditions: Homo sapiens, U-266; 10^−4M; serum-free medium; FIG. 2A; read-out: Cell killing / reduction of viability of U266 cells
Procedure: (§1) The MTT test is a standard assay addressing cell toxicity of a compound. It is based on the principle that after 3-4 hours of cell incubation with MTT (3-(4,5-dimethylthiazole-2-yl)-2,5-diphenyl tetrazolium bromide) so-called purple formazan crystals develop in living and early apoptotic cells. Dead cells don't produce formazan crystals.
(§2) Different cell lines were tested. Unless indicated differently, A549 human lung epithelial cells (derived from lung carcinoma) and L929sA murine fibroblast cells were cultured in DMEM with 10% FCS, 100 U/ml penicillin and 100 μg/ml streptomycin. Unless indicated differently, the human multiple myeloma cell lines L363, U266 and MM1.S were cultured in RPMI 1640 with Glutamax-I, supplemented with 10% FCS, 100 U/ml penicillin and 100 μg/ml streptomycin. Cells were seeded at 5000 cells/well (for adherent A549 and L929sA cells) or at 10000 cells/well (for the multiple myeloma lines in suspension) in 96 well plates. Cells were incubated in the presence of the respective synephrine compounds or vehicle (EtOH; for control test) in a final volume of 0.2 ml for 24 or 48 hours at 37° C. Subsequently, 20 μl of MTT solution (5 mg/ml in phosphate-buffered saline) was added to each well. After 4 hours incubation at 37° C., 80 μl of the extraction buffer (10% SDS, 0.01 M HCl) was added. After overnight incubation at room temperature, the optical densities at 590 nm were measured. Results are illustrated in FIGS. 2 to 6 and are expressed as percentage of viable cells as compared to vehicle-treated controls.
(§3) The MTT test was further extended to include alternative synephrine derivatives and a range of multiple myeloma cell lines for which the results are illustrated by FIGS. 3A, 3B and 4A. Human multiple myeloma cell lines L363, U266 and MM1.S were cultured in RPMI 1640 with Glutamax-I, supplemented with 10% FCS, 100 U/ml penicillin and 100 μg/ml streptomycin. Cells were seeded at 10000 cells/well in 96 well plates. Cells were incubated in the presence of test compounds or vehicle in a final volume of 0.2 ml for 24 or 48 hours at 37° C. The test compounds included in the test were the synephrine derivatives CpdA, Naphth, Benz and Isobut, and DEX as a comparative example. Subsequently, 20 μl of MTT solution (5 mg/ml in phosphate-buffered saline) was added to each well. After 4 hours incubation at 37° C., 80 μl of the extraction buffer (10% SDS, 0.01 M HCl) was added. After 48 hours incubation at room temperature, the optical densities at 590 nm were measured. Results are expressed as percentage of viable cells as compared to vehicle-treated controls.

[2] = system: MM1.S cell line; test: MTT test, cell viability of MM1.S cells; type: cell-based, human; conditions: Homo sapiens, MM1.S; 10^−4 M; 10% FCS; FIG. 4A; read-out: Inhibition of MM1.S cell viability
Procedure: as §1, §2, §3

[3] = MTT test, cell viability of L929sA fibroblasts; type: cell-based, murine; conditions: mouse, L929sA fibroblast cells; 10^−4 M; 48 hours; FIG. 5B; read-out: Block of L929sA cell viability
Procedure: as §1, §2
In a further MTT test, the activity of the synephrine derivatives on the inhibition of cell viability of non-immune cells was measured. […] Tests were performed for 24 hours and for 48 hours. The results are illustrated by FIGS. 5A and 5B for L929 cells, and by FIGS. 6A and 6B for A549 cells. It was observed that CpdA at 10^−5 M blocked cell viability of L929sA and A549 for not more than 10%.

[4] = system: MCF7 breast cancer cells; conditions: 10^−6 M
Procedure: In further experiments, nylon arrayfilter hybridization experiments were performed. cDNA array analyses were carried out according to the instructions of the manufacturer (SuperArray Simplicity GEArray™ KIT) on the cDNA arrays cancer pathway finder and stress and toxicity array. Total RNA, obtained by the protocol as described herein above, was used as a template for [α−^33P]-cDNA probe synthesis using the following steps:
A second array hybridization experiment was performed on Human Stress and Toxicity Pathway Finder GEarray Q series. The same protocol was followed as for the array hybridization experiment on the Human Cancer Pathway Finder described herein above.

[5] = system: B16BL6 melanoma, PG19 melanoma and Lewis Lung Carcinoma; test: In vivo melanoma model, subcutaneous tumors in mice; conditions: eight days of treatment with 200 μg; PBS-treated 1.51+/−0.13 g
Procedure: In vivo melanoma model • Cells of B16BL6 melanoma, PG19 melanoma and Lewis Lung Carcinoma are kept in culture in DMEM supplemented with fetal calf serum, antibiotics and L-glutamine. Cells are harvested, washed three times in LPS-free PBS, and brought to a density of 6×10^6/ml (B16BL6) or 20×10^6/ml (PG19, EL4 and LLC). 100 μl of the cell suspension is injected subcutaneously into shaven, right hind limbs of the mice. When the tumors reach a size of 50-70 mm^2, daily treatment is started with dexamethasone (DEX), hydrocortisone (HYDRO), compound A (CpdA) or its analogues (intraperitoneally (i.p.) or in drinking water). DEX, HYDRO are diluted in PBS; CpdA is diluted in 20% ethanol. The smaller and larger diameters of the tumor are measured daily with an electronic caliper. Tumor size index (TSI) is defined in mm^2 as (a)×(b), (a) being the longest diameter of the tumor and (b) the diameter perpendicular to (a). […] Each mouse receives daily either PBS or a specific dose of DEX, ranging from 5 μg to 200 μg. […]. […] Toxicity and efficacy of CpdA and analogues will be evaluated.

[6] = Serum ELISA of osteoclast and osteoblast markers in DBA/1 mice; conditions: 62.5 μg daily, 8 day treatment; FIG. 21A
Excerpt: DBA/1 mice—Male 8- to 12-wk-old DBA/1 mice were purchased from Janvier and housed following institutional guidelines. All animal procedures were approved by the institutional animal care and ethics committee. […] The human IL-6 and IL-8 cytoset were purchased from BioSource International, Inc. For the detection of TRAP5b in DBA/1 mice serum we used the Mouse TRAP Assay, purchased from Immunodiagnostic systems limited. The osteocalcin EIA kit was purchased from Biomedical Technologies, Inc. All assays were performed according to the manufacturer's instructions.

In the case of `C[C@@H]1C[C@H]2[C@@H]3CCC4=CC(=O)C=C[C@]4(C)[C@@]3(F)[C@@H](O)C[C@]2(C)[C@@]1(O)C(=O)CO` [DEX, dexamethasone, reference compound], the cytotoxicity at 100 µM [1] is reported as 10%, the cytotoxicity at 100 µM [2] is reported as 30% and the cytotoxicity at 48 h [3] is reported as 30%. The “Levels of cyp1A1, FMO1, HMOX2, ATM, bcl2L1, casp1” value [4] was “increases levels”, the “Mean weight of tumors” value [5] was 0.59 ± 0.04 g and the “TRAP5b in mouse serum” value [6] was “increase of TRAP5b in mouse serum”.
